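Values below derive from 48-hour exposures of cells grown in 96-well plates, with endpoints linearly interpolated between the two concentrations bracketing the appropriate inhibition level. At the GI50, growth is halved.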 Activity calls are given as the source filed them. Cut-off read from the data, not from the text of the source: active = GI50 up to about 1.1 µM and inactive = higher.
Experiments:
Test in all cases: inhibition of tumour cell growth, NCI panel, 48 h
DU-145 = system: DU-145
OVCAR-5 = system: OVCAR-5
M14 = system: M14
COLO 205 = system: COLO 205
SW-620 = system: SW-620
CCRF-CEM = system: CCRF-CEM
MDA-MB-231 = system: MDA-MB-231
OVCAR-4 = system: OVCAR-4
SF-295 = system: SF-295
UO-31 = system: UO-31
PC-3 = system: PC-3
EKVX = system: EKVX
OVCAR-3 = system: OVCAR-3
TK-10 = system: TK-10
NCI-H226 = system: NCI-H226
NCI-H522 = system: NCI-H522
A498 = system: A498
SN12C = system: SN12C
SNB-75 = system: SNB-75

Row | Compound | GI50 (DU-145) | GI50 (OVCAR-5) | GI50 (M14) | GI50 (COLO 205) | GI50 (SW-620) | GI50 (CCRF-CEM) | GI50 (MDA-MB-231) | GI50 (OVCAR-4) | GI50 (SF-295) | GI50 (UO-31) | GI50 (PC-3) | GI50 (EKVX) | GI50 (OVCAR-3) | GI50 (TK-10) | GI50 (NCI-H226) | GI50 (NCI-H522) | GI50 (A498) | GI50 (SN12C) | GI50 (SNB-75)
1 | COc1ccc(C2OC(c3ccncc3)=NN2C)cc1OC (stereo not given) | > 100 µM (inactive) | > 100 µM (inactive) | > 100 µM (inactive) | > 100 µM (inactive) | > 100 µM (inactive) | > 100 µM (inactive) | 67.6 µM (inactive) | > 100 µM (inactive) | > 100 µM (inactive) | 60.1 µM (inactive) | 53.2 µM (inactive) | > 100 µM (inactive) | > 100 µM (inactive) | 79.4 µM (inactive) | 81.7 µM (inactive) | > 100 µM (inactive) | 33.5 µM (inactive) | > 100 µM (inactive) | –
2 | C=C(C)[C@@H]1C[C@H]2O[C@](O)(C(=C)CC(=O)/C=C(/C)C[C@@H]3OC(=O)[C@]24O[C@@H]34)[C@H]1O | > 100 µM (inactive) | > 100 µM (inactive) | > 100 µM (inactive) | > 100 µM (inactive) | > 100 µM (inactive) | > 100 µM (inactive) | > 100 µM (inactive) | > 100 µM (inactive) | > 100 µM (inactive) | > 100 µM (inactive) | > 100 µM (inactive) | > 100 µM (inactive) | – | > 100 µM (inactive) | > 100 µM (inactive) | > 100 µM (inactive) | > 100 µM (inactive) | > 100 µM (inactive) | > 100 µM (inactive)
3 | Cc1cccc2c1CC(C1OC(=O)c3c(C)cccc31)C2=O (stereo not given) | > 100 µM (inactive) | > 100 µM (inactive) | > 100 µM (inactive) | > 100 µM (inactive) | > 100 µM (inactive) | > 100 µM (inactive) | > 100 µM (inactive) | > 100 µM (inactive) | > 100 µM (inactive) | > 100 µM (inactive) | > 100 µM (inactive) | > 100 µM (inactive) | > 100 µM (inactive) | > 100 µM (inactive) | > 100 µM (inactive) | 15.7 µM (inactive) | > 100 µM (inactive) | > 100 µM (inactive) | > 100 µM (inactive)
4 | COc1ccc(C(O)CNC(=O)c2ccccc2)cc1 (stereo not given) | > 100 µM (inactive) | > 100 µM (inactive) | > 100 µM (inactive) | > 100 µM (inactive) | > 100 µM (inactive) | > 100 µM (inactive) | > 100 µM (inactive) | > 100 µM (inactive) | > 100 µM (inactive) | – | > 100 µM (inactive) | > 100 µM (inactive) | > 100 µM (inactive) | > 100 µM (inactive) | > 100 µM (inactive) | > 100 µM (inactive) | > 100 µM (inactive) | > 100 µM (inactive) | > 100 µM (inactive)
5 | Cc1nc(C)c(N2CCN([N+](=O)[O-])CC2)c(O)n1 | > 100 µM (inactive) | – | > 100 µM (inactive) | > 100 µM (inactive) | > 100 µM (inactive) | > 100 µM (inactive) | > 100 µM (inactive) | > 100 µM (inactive) | > 100 µM (inactive) | > 100 µM (inactive) | > 100 µM (inactive) | > 100 µM (inactive) | > 100 µM (inactive) | > 100 µM (inactive) | > 100 µM (inactive) | > 100 µM (inactive) | > 100 µM (inactive) | > 100 µM (inactive) | < 0.01 µM (active)
6 | COC(=O)/C=C\C(C#N)(C#N)/N=C/c1ccsc1 | 8.05 µM (inactive) | 7.24 µM (inactive) | 2.45 µM (inactive) | 1.37 µM (inactive) | 1.28 µM (inactive) | 0.216 µM (active) | 5.73 µM (inactive) | 18.5 µM (inactive) | 13.3 µM (inactive) | 3.03 µM (inactive) | 11.6 µM (inactive) | 4.46 µM (inactive) | 1.86 µM (inactive) | 2.36 µM (inactive) | 20.4 µM (inactive) | 0.662 µM (active) | 18.8 µM (inactive) | 5.33 µM (inactive) | 15.7 µM (inactive)
7 | Cc1ccc2c(=O)c(C(=O)N(CCO)CCO)c[nH]c2n1 | > 100 µM (inactive) | > 100 µM (inactive) | > 100 µM (inactive) | > 100 µM (inactive) | > 100 µM (inactive) | > 100 µM (inactive) | > 100 µM (inactive) | > 100 µM (inactive) | > 100 µM (inactive) | > 100 µM (inactive) | > 100 µM (inactive) | > 100 µM (inactive) | > 100 µM (inactive) | > 100 µM (inactive) | > 100 µM (inactive) | > 100 µM (inactive) | > 100 µM (inactive) | > 100 µM (inactive) | –
8 | Nc1ncnc2c1ncn2C1OC(COP(=O)(O)CP(=O)(O)O)C(O)C1O (stereo not given) | > 100 µM (inactive) | > 100 µM (inactive) | > 100 µM (inactive) | 94.6 µM (inactive) | > 100 µM (inactive) | > 100 µM (inactive) | > 10 µM (inactive) | – | > 100 µM (inactive) | > 100 µM (inactive) | > 100 µM (inactive) | > 100 µM (inactive) | – | > 100 µM (inactive) | > 100 µM (inactive) | > 100 µM (inactive) | > 100 µM (inactive) | > 100 µM (inactive) | > 100 µM (inactive)
9 | CC(C)C[C@H](NC(=O)CCc1ccccc1)B(O)O | 60.8 µM (inactive) | 13.6 µM (inactive) | 12.1 µM (inactive) | 12.7 µM (inactive) | 4.83 µM (inactive) | 2.33 µM (inactive) | 17.7 µM (inactive) | 36.5 µM (inactive) | 12 µM (inactive) | 15.8 µM (inactive) | 37.2 µM (inactive) | 42.1 µM (inactive) | 3.63 µM (inactive) | 8.97 µM (inactive) | 1.62 µM (inactive) | 11.7 µM (inactive) | 3.19 µM (inactive) | 16.8 µM (inactive) | –
10 | Cc1ccc2c3c1O[C@H]1c4[nH]c5ccccc5c4C[C@@]4(O)[C@@H](C2)N(CC2CC2)CC[C@]314 | 16.1 µM (inactive) | 18.7 µM (inactive) | 16.8 µM (inactive) | 14.3 µM (inactive) | 10.9 µM (inactive) | 2.78 µM (inactive) | 19.4 µM (inactive) | 0.166 µM (active) | 17.4 µM (inactive) | 13.4 µM (inactive) | 12.1 µM (inactive) | 17.4 µM (inactive) | 14.4 µM (inactive) | 17.3 µM (inactive) | 14.9 µM (inactive) | 15 µM (inactive) | 17.1 µM (inactive) | 15.3 µM (inactive) | –
11 | C[N+](C)(CCCn1ccnc1[N+](=O)[O-])CCCn1ccnc1[N+](=O)[O-] | > 100 µM (inactive) | > 100 µM (inactive) | > 100 µM (inactive) | > 100 µM (inactive) | > 100 µM (inactive) | > 100 µM (inactive) | > 100 µM (inactive) | > 100 µM (inactive) | > 100 µM (inactive) | > 100 µM (inactive) | > 100 µM (inactive) | > 100 µM (inactive) | > 100 µM (inactive) | > 100 µM (inactive) | > 100 µM (inactive) | > 100 µM (inactive) | > 100 µM (inactive) | > 100 µM (inactive) | > 100 µM (inactive)
